Test results: ChEMBL document CHEMBL4834434, “Discovery of Novel and Potent N-Methyl-d-aspartate Receptor Positive Allosteric Modulators with Antidepressant-like Activity in Rodent Models” (J Med Chem, 2021)
Active and inactive are the calls of the source. No cut-off for these calls is given here.

How the values were obtained:
[1] = target: Glutamate NMDA receptor (Mus musculus) (UniProt P35436+Q91ZU9+Q03391+P35438+Q01097+Q01098+A2AIR5); experiment: Positive allosteric modulation of C57BL/6 mouse NMDA receptor assessed as fold change in compound potentiated NMDA-induced current relative to NMDA current alone at 30 uM measured after 15 to 30 mins by patch-clamp method; format: tissue-based; details: Brain, filed as positive allosteric modulator, time 15-30 min
[2] = target: Glutamate NMDA receptor; experiment: Positive allosteric modulation of C57BL/6 mouse NMDA receptor assessed as potentiation of NMDA-induced current in presence of saturating glutamate by patch-clamp method; format: tissue-based, Brain
[3] = Brain to blood partition coefficient of the compound; format: physicochemical, tissue-based; details: read-out: logBB (converted)
[4] = tested on: Mus musculus; experiment: Antidepressant activity in ICR mouse assessed as decrease in immobility time at 3 to 10 mg/kg, ip measured after 26 mins by forced swim test; format: functional, organism-based; details: dose 3-10 mg/kg
[5] = target: D(2) dopamine receptor (Homo sapiens) (UniProt P14416); experiment: Displacement of [3H]-methylspiperone from human dopamine D2 receptor expressed in CHO cells incubated for 30 mins by liquid scintillation counting analysis; format: cell-based
[6] = target: D(3) dopamine receptor (Homo sapiens) (UniProt P35462); experiment: Displacement of [3H]-methylspiperone from human dopamine D3 receptor expressed in CHO cells incubated for 60 mins by liquid scintillation counting analysis; format: cell-based
[7] = target: Adrenergic receptor alpha-1 (Rattus norvegicus) (UniProt P15823+P23944+P43140); experiment: Displacement of [3H]-prazosin from rat adrenergic alpha 1 receptor incubated for 60 mins by liquid scintillation counting analysis; format: protein assay
[8] = target: 5-hydroxytryptamine receptor 1B (Homo sapiens) (UniProt P28222); experiment: Displacement of [3H]-GR125743 from 5HT1BR (unknown origin) expressed in CHO cells; format: cell-based
[9] = target: 5-hydroxytryptamine receptor 6 (Homo sapiens) (UniProt P50406); experiment: Displacement of [3H]-LSD from human 5HT6 incubated for 30 mins by liquid scintillation counting analysis
[10] = target: Sodium-dependent dopamine transporter (Rattus norvegicus) (UniProt P23977); experiment: Displacement of [3H]-WIN35428 from rat striatum DAT; format: tissue-based
[11] = target: Sodium-dependent noradrenaline transporter (Homo sapiens) (UniProt P23975); experiment: Displacement of [3H]-Nisoxetine from NET (unknown origin)
[12] = target: Sodium-dependent serotonin transporter (Homo sapiens) (UniProt P31645); experiment: Displacement of [3H]-paroxetine from SERT (unknown origin); design: dose or concentration left out as unconfirmed
[13] = Half life in ICR mouse at 3 mg/kg, iv measured up to 24 hrs by HPLC-MS/MS analysis; format: ADME, organism-based; details: in vivo
[14] = AUC (0 to t) in ICR mouse at 3 mg/kg, iv measured up to 24 hrs by HPLC-MS/MS analysis; format: ADME, organism-based; design: route intravenous, dose 3 mg/kg, time <=24; details: in vivo
[15] = MRT in ICR mouse at 3 mg/kg, iv measured up to 24 hrs by HPLC-MS/MS analysis; format: ADME, organism-based; details: in vivo
[16] = Drug concentration in ICR mouse plasma at 3 mg/kg, iv measured at 0.5 hrs by LC-MS/MS analysis; format: ADME, organism-based
[17] = Drug concentration in ICR mouse brain at 3 mg/kg, iv measured at 2 hrs; format: ADME, organism-based; details: read-out: Ct
[18] = Ratio of drug concentration in brain to plasma in ICR mouse at 3 mg/kg, iv measured at 2 hrs by LC-MS/MS analysis; format: ADME, organism-based; details: read-out: BPR
[19] = Tmax in ICR mouse at 10 mg/kg, po measured up to 24 hrs by HPLC-MS/MS analysis; format: ADME, organism-based; details: in vivo
[20] = Half life in ICR mouse at 10 mg/kg, po measured up to 24 hrs by HPLC-MS/MS analysis; format: ADME, organism-based; details: in vivo
[21] = MRT in ICR mouse at 10 mg/kg, po measured up to 24 hrs by HPLC-MS/MS analysis; format: ADME, organism-based; details: in vivo
[22] = Drug concentration in ICR mouse plasma at 10 mg/kg, po measured at 0.5 hrs by LC-MS/MS analysis; format: ADME, organism-based
[23] = Drug concentration in ICR mouse brain at 10 mg/kg, po measured at 2 hrs by LC-MS/MS analysis; format: ADME, organism-based; details: read-out: Ct
[24] = Drug concentration in ICR mouse plasma at 10 mg/kg, po measured at 2 hrs by LC-MS/MS analysis; format: ADME, organism-based
[25] = Ratio of drug concentration in brain to plasma in ICR mouse at 10 mg/kg, po measured at 2 hrs by LC-MS/MS analysis; format: ADME, organism-based; details: read-out: BPR
[26] = Cmax in Sprague-Dawley rat at 3 mg/kg, iv measured up to 1280 mins by HPLC-MS/MS analysis; format: ADME, organism-based; design: route intravenous, dose 3 mg/kg, time <=1280; details: in vivo
[27] = Half life in Sprague-Dawley rat at 3 mg/kg, iv measured up to 1280 mins by HPLC-MS/MS analysis; format: ADME, organism-based; details: in vivo
[28] = Clearance in Sprague-Dawley rat at 3 mg/kg, iv measured up to 1280 mins by HPLC-MS/MS analysis; format: ADME, organism-based; details: in vivo
[29] = AUC (0 to t) in Sprague-Dawley rat at 3 mg/kg, iv measured up to 1280 mins by HPLC-MS/MS analysis; format: ADME, organism-based; design: route intravenous, dose 3 mg/kg, time <=1280; details: in vivo
[30] = Cmax in Sprague-Dawley rat at 10 mg/kg, po measured up to 1280 mins by HPLC-MS/MS analysis; format: ADME, organism-based; design: route oral, dose 10 mg/kg, time <=1280; details: in vivo
[31] = Tmax in Sprague-Dawley rat at 10 mg/kg, po measured up to 1280 mins by HPLC-MS/MS analysis; format: ADME, organism-based; details: in vivo
[32] = AUC (0 to t) in Sprague-Dawley rat at 10 mg/kg, po measured up to 1280 mins by HPLC-MS/MS analysis; format: ADME, organism-based; design: route oral, dose 10 mg/kg, time <=1280; details: in vivo
[33] = Drug concentration in Sprague-Dawley rat brain at 3 mg/kg, iv measured at 20 mins by LC-MS/MS analysis; format: ADME, organism-based; details: read-out: Ct
[34] = Drug concentration in Sprague-Dawley rat plasma at 3 mg/kg, iv measured at 20 mins by LC-MS/MS analysis; format: ADME, organism-based
[35] = Ratio of drug concentration in brain to plasma in Sprague-Dawley rat at 3 mg/kg, iv measured at 20 mins by LC-MS/MS analysis; format: ADME, organism-based; details: read-out: BPR
[36] = Cytotoxicity against African green monkey Vero cells assessed as cell growth inhibition at 120 uM measured after 48 hrs by CCK8 assay relative to control; format: cell-based; details: chlorocebus sabaeus
[37] = Cytotoxicity against African green monkey Vero cells assessed as cell growth inhibition at 60 uM measured after 48 hrs by CCK8 assay relative to control; format: cell-based; details: chlorocebus sabaeus
[38] = Acute toxicity in ip dosed ICR mouse assessed as lethal dose measured after 24 hrs; format: organism-based; details: in vivo
[39] = […] in ICR mouse assessed as decrease in body weight at 30 mg/kg, po administered for 28 days; format: organism-based; details: in vivo, 672 h, time 28 day
[40] = […] in ICR mouse assessed as body weight gain at 30 mg/kg, po administered for 28 days; format: organism-based; details: in vivo, 672 h, time 28 day
[41] = […] in ICR mouse assessed as change in behaviour at 30 mg/kg, po administered for 28 days; format: organism-based; details: in vivo, 672 h, time 28 day

Chain of 5-hydroxytryptamine receptor 1B (Homo sapiens) (P28222 whole entry): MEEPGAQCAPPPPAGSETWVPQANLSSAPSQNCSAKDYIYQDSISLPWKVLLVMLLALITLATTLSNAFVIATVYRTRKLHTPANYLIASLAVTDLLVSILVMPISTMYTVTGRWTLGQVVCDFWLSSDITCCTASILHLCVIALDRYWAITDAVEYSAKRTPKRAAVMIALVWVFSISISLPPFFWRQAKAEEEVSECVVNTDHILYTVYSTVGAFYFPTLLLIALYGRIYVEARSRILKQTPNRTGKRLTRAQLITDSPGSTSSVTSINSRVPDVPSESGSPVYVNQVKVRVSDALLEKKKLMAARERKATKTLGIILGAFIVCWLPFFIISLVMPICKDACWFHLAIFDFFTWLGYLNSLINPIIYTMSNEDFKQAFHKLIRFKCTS
Chain of D(2) dopamine receptor (Homo sapiens) (P14416 whole entry): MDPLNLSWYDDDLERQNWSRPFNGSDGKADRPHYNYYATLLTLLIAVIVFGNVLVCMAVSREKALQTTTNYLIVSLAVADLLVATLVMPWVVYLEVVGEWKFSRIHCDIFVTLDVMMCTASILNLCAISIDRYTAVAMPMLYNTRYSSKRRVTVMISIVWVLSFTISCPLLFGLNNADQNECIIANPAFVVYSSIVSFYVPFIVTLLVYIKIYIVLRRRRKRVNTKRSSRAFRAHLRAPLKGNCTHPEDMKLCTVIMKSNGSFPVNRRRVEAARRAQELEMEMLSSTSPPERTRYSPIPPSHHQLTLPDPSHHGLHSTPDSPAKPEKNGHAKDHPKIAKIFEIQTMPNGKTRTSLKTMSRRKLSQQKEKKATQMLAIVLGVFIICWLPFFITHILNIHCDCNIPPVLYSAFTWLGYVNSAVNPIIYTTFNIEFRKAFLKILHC
Chain of D(3) dopamine receptor (Homo sapiens) (P35462 whole entry): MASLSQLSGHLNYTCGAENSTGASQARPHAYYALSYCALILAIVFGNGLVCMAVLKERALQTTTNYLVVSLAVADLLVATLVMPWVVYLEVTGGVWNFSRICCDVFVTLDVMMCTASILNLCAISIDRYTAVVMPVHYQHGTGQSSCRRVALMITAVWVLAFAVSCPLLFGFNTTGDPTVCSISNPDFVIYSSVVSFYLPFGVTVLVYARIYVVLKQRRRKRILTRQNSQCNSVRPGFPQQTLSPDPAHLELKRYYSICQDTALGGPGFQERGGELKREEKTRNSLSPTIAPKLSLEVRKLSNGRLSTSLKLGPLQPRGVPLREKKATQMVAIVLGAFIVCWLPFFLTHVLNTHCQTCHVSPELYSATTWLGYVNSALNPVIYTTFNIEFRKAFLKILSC
Chain of 5-hydroxytryptamine receptor 6 (Homo sapiens) (P50406 whole entry): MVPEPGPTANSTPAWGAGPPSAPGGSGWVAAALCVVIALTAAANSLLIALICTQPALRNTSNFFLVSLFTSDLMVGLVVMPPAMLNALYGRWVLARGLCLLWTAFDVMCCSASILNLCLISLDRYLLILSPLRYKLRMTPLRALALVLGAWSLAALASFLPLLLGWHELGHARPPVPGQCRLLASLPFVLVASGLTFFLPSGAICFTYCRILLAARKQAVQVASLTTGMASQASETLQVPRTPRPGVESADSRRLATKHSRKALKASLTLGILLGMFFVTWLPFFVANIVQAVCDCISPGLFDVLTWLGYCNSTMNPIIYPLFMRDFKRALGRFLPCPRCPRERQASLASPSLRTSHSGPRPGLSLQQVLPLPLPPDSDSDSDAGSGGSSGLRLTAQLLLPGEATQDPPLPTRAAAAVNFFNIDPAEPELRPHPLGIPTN
Chain of Sodium-dependent noradrenaline transporter (Homo sapiens) (P23975 whole entry): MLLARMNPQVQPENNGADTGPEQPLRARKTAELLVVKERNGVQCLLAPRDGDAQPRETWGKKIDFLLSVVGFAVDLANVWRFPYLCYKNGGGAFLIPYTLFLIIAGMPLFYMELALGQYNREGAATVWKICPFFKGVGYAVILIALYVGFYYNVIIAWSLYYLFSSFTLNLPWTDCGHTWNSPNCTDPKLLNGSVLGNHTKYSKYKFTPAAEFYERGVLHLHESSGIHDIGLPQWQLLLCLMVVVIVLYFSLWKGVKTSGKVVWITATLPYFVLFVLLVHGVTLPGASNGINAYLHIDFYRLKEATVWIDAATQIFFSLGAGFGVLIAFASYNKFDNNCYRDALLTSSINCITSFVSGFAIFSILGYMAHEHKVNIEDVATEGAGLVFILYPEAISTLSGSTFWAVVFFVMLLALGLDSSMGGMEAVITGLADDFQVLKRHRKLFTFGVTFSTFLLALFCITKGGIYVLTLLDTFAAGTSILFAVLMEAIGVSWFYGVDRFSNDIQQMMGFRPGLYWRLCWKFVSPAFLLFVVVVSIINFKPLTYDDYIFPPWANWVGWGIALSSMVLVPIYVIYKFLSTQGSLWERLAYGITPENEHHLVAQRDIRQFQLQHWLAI
Chain of Sodium-dependent serotonin transporter (Homo sapiens) (P31645 whole entry, looked up): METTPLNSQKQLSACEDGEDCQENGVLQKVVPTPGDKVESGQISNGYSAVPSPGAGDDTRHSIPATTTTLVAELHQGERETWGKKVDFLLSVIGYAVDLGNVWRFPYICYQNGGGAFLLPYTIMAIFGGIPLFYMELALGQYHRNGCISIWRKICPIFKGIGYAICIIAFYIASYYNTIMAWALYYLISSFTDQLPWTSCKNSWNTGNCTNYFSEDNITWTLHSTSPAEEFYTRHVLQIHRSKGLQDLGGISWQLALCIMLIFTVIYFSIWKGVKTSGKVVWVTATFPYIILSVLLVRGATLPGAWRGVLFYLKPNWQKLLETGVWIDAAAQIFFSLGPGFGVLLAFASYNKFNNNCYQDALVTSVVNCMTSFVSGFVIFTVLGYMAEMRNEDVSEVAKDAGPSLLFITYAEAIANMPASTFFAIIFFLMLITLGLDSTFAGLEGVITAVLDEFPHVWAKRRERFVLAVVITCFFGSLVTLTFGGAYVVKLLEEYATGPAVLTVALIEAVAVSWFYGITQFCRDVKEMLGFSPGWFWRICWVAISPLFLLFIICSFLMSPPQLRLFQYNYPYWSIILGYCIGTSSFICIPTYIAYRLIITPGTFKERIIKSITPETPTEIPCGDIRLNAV
Chain of Sodium-dependent dopamine transporter (Rattus norvegicus) (P23977 whole entry): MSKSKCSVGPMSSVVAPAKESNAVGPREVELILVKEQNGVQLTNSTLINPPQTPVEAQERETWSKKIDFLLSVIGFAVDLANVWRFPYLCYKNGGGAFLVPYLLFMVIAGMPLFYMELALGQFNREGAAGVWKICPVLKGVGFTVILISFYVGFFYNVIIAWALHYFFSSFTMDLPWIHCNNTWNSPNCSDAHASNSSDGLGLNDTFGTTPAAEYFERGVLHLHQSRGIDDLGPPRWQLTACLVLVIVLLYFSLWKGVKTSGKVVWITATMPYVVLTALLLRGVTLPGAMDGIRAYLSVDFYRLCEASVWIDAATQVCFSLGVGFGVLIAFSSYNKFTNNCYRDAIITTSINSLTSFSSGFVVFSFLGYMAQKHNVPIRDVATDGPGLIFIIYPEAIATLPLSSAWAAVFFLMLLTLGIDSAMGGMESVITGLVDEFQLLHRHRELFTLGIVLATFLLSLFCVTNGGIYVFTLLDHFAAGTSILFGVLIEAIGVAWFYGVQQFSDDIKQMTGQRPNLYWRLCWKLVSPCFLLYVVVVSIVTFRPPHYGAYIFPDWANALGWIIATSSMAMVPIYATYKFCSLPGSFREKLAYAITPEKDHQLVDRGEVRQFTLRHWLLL

## Cc1cc(C)n(Cc2ccc(C(=O)Nc3ccc(Cl)c(Cl)c3)s2)n1
[1]
  fold change (FC): 12.5
[2]
  EC50: 2.4 µM
[3]
  Kp: 1.26
[4]
  Activity: Active
[5]
  inhibition: inactive
[6]
  inhibition: inactive
[7]
  inhibition: inactive
[8]
  inhibition: inactive
[9]
  inhibition: inactive
[10]
  inhibition: inactive
[11]
  inhibition: inactive
[12]
  inhibition: inactive
[13]
  half-life: 2.8 h
[14]
  AUC(0-t) at 24 h: 1450 ng·h/mL
[15]
  MRT: 4 h
[16]
  concentration at 0.5 h: 389 ng/mL
[17]
  concentration at 2 h: 85.5 ng/mL
[18]
  Kp at 2 h: 0.34
[19]
  Tmax: 0.5 h
[20]
  half-life: 2.9 h
[21]
  MRT: 4.2 h
[22]
  concentration at 0.5 h: 760 ng/mL
[23]
  concentration at 2 h: 174 ng/mL
[24]
  concentration at 2 h: 451 ng/mL
[25]
  Kp at 2 h: 0.38
[26]
  Cmax: 2350 ng/mL
[27]
  t1/2: 1.7 h
[28]
  CL: 27.8 mL/min/kg
[29]
  AUC(0-t) at 1280 min: 1820 ng·h/mL
[30]
  Cmax: 190 ng/mL
[31]
  Tmax: 0.555 h
[32]
  AUC(0-t) at 1280 min: 503 ng·h/mL
[33]
  concentration at 20 min: 2190 ng/g
[34]
  concentration at 20 min: 1490 ng/mL
[35]
  Kp at 20 min: 1.5
[36]
  inhibition at 48 h, 120 µM: 22.6%
[37]
  inhibition at 48 h, 60 µM: 21.9%
[38]
  LD50 at 24 h: 1500 mg/kg
[39]
  Activity: Toxic
[40]
  Activity: Non-Toxic
[41]
  Activity: Non-Toxic
